Results from patent US11377425B1, “Small molecule modulators of IL-17” (LEO Pharma A/S, priority 2018, dated 2022).

target: T1, human IL-17AA (Homo sapiens, UniProt Q16552); assay: IL-8 release assay in human epithelial keratinocytes adult (HEKa); assay type: cell-based; conditions: HEKa cells, 3 ng/mL HEK-human IL-17AA + 10 ng/mL human TNFalpha; read-out: Rel EC50 IL-8 release assay
T1 construct: host or cells: HEK (human embryonic kidney) cells
T1 sequence (Q16552 24-155): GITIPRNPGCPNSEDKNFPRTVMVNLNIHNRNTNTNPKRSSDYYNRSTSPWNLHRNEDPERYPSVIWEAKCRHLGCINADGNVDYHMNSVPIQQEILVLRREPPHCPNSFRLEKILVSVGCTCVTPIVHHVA
In short: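 Adult human epidermal keratinocytes stimulated 68-72 h at 37 °C with 3 ng/mL HEK-derived human IL-17AA plus 10 ng/mL TNF-alpha (final) in the presence of compound; TNF-alpha alone defines 100% inhibition. Secreted IL-8 measured by HTRF as percent of controls; relative IC50/Emax from four-parameter fit (r^2>0.9), cytotoxicity by PrestoBlue.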

Question: For `Cc1n[nH]c(C)c1-c1ccc(NC(=O)[C@@H](Cc2ccccc2)NC(=O)c2ccnn2C)cc1` [Example 297, N-[(1R)-1-benzyl-2-[4-(3,5-dimethyl-1H-pyrazol-4-yl)anilino]-2-oxo-ethyl]-2-methyl-pyrazole-3-carboxamide], which EC50 is on record?
Answer: > 1 µM

Question: With `Cc1ncn(C)c1-c1ccc(NC(=O)[C@@H](NC(=O)OC(C)(C)C)C2CCCCCC2)cc1` [Example 88, tert-butyl N-[(1S)-1-cycloheptyl-2-[4-(3,5-dimethylimidazol-4-yl)anilino]-2-oxo-ethyl]carbamate] as the molecule, how does the EC50 read?
Answer: 0.1 to 1 µM

Question: For `Cc1nocc1C(=O)N[C@H](C(=O)Nc1ccc(-c2c(C)n[nH]c2C)cc1)C(C1CCC1)C1CCC1` [Example 274, N-[(1S)-1-[di(cyclobutyl)methyl]-2-[4-(3,5-dimethyl-1H-pyrazol-4-yl)anilino]-2-oxo-ethyl]-3-methyl-isoxazole-4-carboxamide], which EC50 is on record?
Answer: < 0.1 µM

Question: With `Cc1n[nH]c(C)c1-c1ccc(NC(=O)[C@@H](NC(=O)c2ccnn2C(C)CO)C(C2CC2)C2CC2)cc1` (stereo partly shown) [Example 120] as the molecule, how does the EC50 read?
Answer: 0.1 to 1 µM

Question: For `Cc1n[nH]c(C)c1-c1ccc(NC(=O)[C@@H](NC(=O)c2ccnn2C)C2C[C@@H](C)C[C@@H](C)C2)cc1` (stereo partly drawn) [Example 146, N-[(1S)-1-[(3R,5S)-3,5-dimethylcyclohexyl]-2-[4-(3,5-dimethyl-1H-pyrazol-4-yl)anilino]-2-oxo-ethyl]-2-methyl-pyrazole-3-carboxamide], which EC50 is on record?
Answer: < 0.1 µM

Question: For `Cn1cncc1-c1ccc(NC(=O)[C@@H](NC(=O)c2ccnn2C)C(C2CCCCC2)C2CCCC2)cc1` (single isomer, unassigned) [Example 339A], which EC50 is on record?
Answer: 0.1 to 1 µM

Question: Which EC50 does the source give for `CC(C)n1nccc1C(=O)NC(C(=O)Nc1ccc(-c2c(C3CC3)n[nH]c2C2CC2)cc1)C(C1CC1)C1CC1` (single isomer, unassigned) [Example 385, N-[1-(dicyclopropylmethyl)-2-[4-(3,5-dicyclopropyl-1H-pyrazol-4-yl)anilino]-2-oxo-ethyl]-2-isopropyl-pyrazole-3-carboxamide] here?
Answer: < 0.1 µM

Question: How did the EC50 turn out when `Cc1n[nH]c(C)c1-c1ccc(NC(=O)[C@@H](NC(=O)c2ccnn2C)[C@@H]2CCCC3(CC3)C2)cc1` [Example 241, N-[(1S)-2-[4-(3,5-dimethyl-1H-pyrazol-4-yl)anilino]-2-oxo-1-[(7R)-spiro[2.5]octan-7-yl]ethyl]-2-methyl-pyrazole-3-carboxamide] was run?
Answer: 0.1 to 1 µM

Question: With `Cc1n[nH]c(C)c1-c1ccc(NC(=O)[C@@H](NC(=O)C2CCCC2)C(C2CC2)C2CC2)cc1` [Example 170, N-[(1S)-1-(dicyclopropylmethyl)-2-[4-(3,5-dimethyl-1H-pyrazol-4-yl)anilino]-2-oxo-ethyl]cyclopentane carboxamide] as the molecule, how does the EC50 read?
Answer: 0.1 to 1 µM

Question: `Cc1n[nH]c(C)c1-c1ccc(NC(=O)[C@@H](NC(=O)c2ccnn2C)[C@@H]2CCc3c(F)cc(Br)cc32)cc1` [Example 278, N-[(1S)-1-[(1R)-6-bromo-4-fluoro-indan-1-yl]-2-[4 (3,5-dimethyl-1H-pyrazol-4-yl)anilino]-2-oxo-ethyl]-2-methyl-pyrazole-3-carboxamide] was tested. Which EC50 did it give?
Answer: 0.1 to 1 µM

Question: For `Cc1n[nH]c(C)c1-c1ccc(NC(=O)[C@@H](NC(=O)c2ccnn2C)C2C[C@@H](C)C[C@@H](C)C2)cc1` (stereo partly drawn) [Example 147, N-[(1S)-1-[(3R,5S)-3,5-dimethylcyclohexyl]-2-[4-(3,5-dimethyl-1H-pyrazol-4-yl)anilino]-2-oxo-ethyl]-2-methyl-pyrazole-3-carboxamide], which EC50 is on record?
Answer: < 0.1 µM

Question: For `Cc1n[nH]c(N)c1-c1ccc(NC(=O)[C@@H](NC(=O)c2ccnn2C)C2CCCCCC2)cc1` [Example 450, N-[(1S)-2-[4-(5-amino-3-methyl-1H-pyrazol-4-yl)anilino]-1-cycloheptyl-2-oxo-ethyl]-2-methyl-pyrazole-3-carboxamide], which EC50 is on record?
Answer: 0.1 to 1 µM

Question: For `Cc1n[nH]c(C)c1-c1ccc(NC(=O)[C@@H](NC(=O)c2ccnn2CC(F)(F)F)C(C2CC2)C2CC2)cc1` [Example 184, N-[(1S)-1-(dicyclopropylmethyl)-2-[4-(3,5-dimethyl-1H-pyrazol-4-yl)anilino]-2-oxo-ethyl]-2-(2,2,2-trifluoroethyl)pyrazole-3-carboxamide], which EC50 is on record?
Answer: < 0.1 µM

Question: Which EC50 does the source give for `Cc1[nH]nc(CO)c1-c1ccc(NC(=O)[C@@H](NC(=O)OC(C)(C)C)C2CCCCC2)cc1` [Example 438, tert-butyl N-[(1S)-1-cyclohexyl-2-[4-[5-(hydroxymethyl)-3-methyl-1H-pyrazol-4-yl]anilino]-2-oxo-ethyl]carbamate] here?
Answer: 0.1 to 1 µM

Question: For `Cc1n[nH]c(C)c1-c1ccc(NC(=O)[C@@H](NC(=O)C2(F)CC2)C2CCCCC2)cc1` [Example 66, N-[(1S)-1-cyclohexyl-2-[4-(3,5-dimethyl-1H-pyrazol-4-yl)anilino]-2-oxo-ethyl]-1-fluoro-cyclopropanecarboxamide], which EC50 is on record?
Answer: 0.1 to 1 µM

Question: With `Cc1n[nH]c(C)c1-c1ccc(NC(=O)[C@@H](NC(=O)c2ccnn2C)C2CCC(C(F)(F)F)CC2)cc1` (single isomer, unassigned) [Example 269] as the molecule, how does the EC50 read?
Answer: 0.1 to 1 µM

Question: How did the EC50 turn out when `Cc1ncn(C)c1-c1ccc(NC(=O)C(NC(=O)c2ccnn2C)C2CCC(F)(F)CC2)cc1` (single isomer, unassigned) [Example 333, N-[1-(4,4-difluorocyclohexyl)-2-[4-(3,5-dimethylimidazol-4-yl)anilino]-2-oxo-ethyl]-2-methyl-pyrazole-3-carboxamide] was run?
Answer: > 1 µM

Question: For `CCc1n[nH]c(CC)c1-c1ccc(NC(=O)[C@@H](NC(=O)c2ccnn2C(C)C)C(C2CC2)C2CC2)cc1` [Example 399, N-[(1S)-1-(dicyclopropylmethyl)-2-[4-(3,5-diethyl-1H-pyrazol-4-yl)anilino]-2-oxo-ethyl]-2-isopropyl-pyrazole-3-carboxamide], which EC50 is on record?
Answer: < 0.1 µM

Question: With `Cc1n[nH]c(C)c1-c1ccc(NC(=O)[C@@H](NC(=O)N(C)CCO)C2CCCCC2)cc1` [Example 463, (2S)-2-cyclohexyl-N-[4-(3,5-dimethyl-1H-pyrazol-4-yl)phenyl]-2-[[2-hydroxyethyl(methyl)carbamoyl]amino]acetamide] as the molecule, how does the EC50 read?
Answer: > 1 µM

Question: For `Cn1cncc1-c1ccc(NC(=O)[C@@H](NC(=O)c2ccnn2C)C2CCCCC2)cc1` [Example 343, N-[(1S)-1-cyclohexyl-2-[4-(3-methylimidazol-4-yl)anilino]-2-oxo-ethyl]-2-methyl-pyrazole-3-carboxamide], which EC50 is on record?
Answer: > 1 µM

Question: Which EC50 does the source give for `Cc1n[nH]c(C)c1-c1ccc(NC(=O)[C@@H](NC(=O)N2CCCC2C(C)(C)O)C2CCCCC2)cc1` (single isomer, unassigned) [Example 465] here?
Answer: > 1 µM

Question: How did the EC50 turn out when `CCn1nccc1C(=O)N[C@@H](CC1CCCCC1)C(=O)Nc1ccc(-c2c(C)n[nH]c2C)cc1` [Example 16, N-[(1S)-1-(cyclohexylmethyl)-2-[4-(3,5-dimethyl-1H-pyrazol-4-yl)anilino]-2-oxo-ethyl]-2-ethyl-pyrazole-3-carboxamide] was run?
Answer: 0.1 to 1 µM

Question: How did the EC50 turn out when `Cc1nccn1-c1ccc(NC(=O)[C@@H](NC(=O)c2ccnn2C)[C@@H]2CCCc3ccccc32)cc1` [Example 378, 2-methyl-N-[(1S)-2-[4-(2-methylimidazol-1-yl)anilino]-2-oxo-1-[(1R)-tetralin-1-yl]ethyl]pyrazole-3-carboxamide] was run?
Answer: > 1 µM

Question: With `Cc1n[nH]c(C)c1-c1ccc(NC(=O)[C@@H](NC(=O)c2ccnn2C)[C@@H]2CCc3ccc(C#N)cc32)cc1` [Example 78, N-[(1S)-1-[(1R)-6-cyanoindan-1-yl]-2-[4-(3,5-dimethyl-1H-pyrazol-4-yl)anilino]-2-oxo-ethyl]-2-methyl-pyrazole-3-carboxamide] as the molecule, how does the EC50 read?
Answer: > 1 µM

Question: Which EC50 does the source give for `CCn1nccc1C(=O)N[C@H](C(=O)Nc1ccc(-c2c(C)n[nH]c2C)cc1)[C@@H]1CC(C)(C)CCC1(F)F` [Example 213, N-[(1S)-1-[(1S)-2,2-difluoro-5,5-dimethyl-cyclohexyl]-2-[4-(3,5-dimethyl-1H-pyrazol-4-yl)anilino]-2-oxo-ethyl]-2-ethyl-pyrazole-3-carboxamide] here?
Answer: < 0.1 µM

Question: With `Cc1n[nH]c(C)c1-c1ccc(NC(=O)[C@@H](NC(=O)c2ccnn2C)[C@@H]2CCc3ccccc32)cc1` [Example 76, N-[(1S)-2-[4-(3,5-dimethyl-1H-pyrazol-4-yl)anilino]-1-[(1R)-indan-1-yl]-2-oxo-ethyl]-2-methyl-pyrazole-3-carboxamide] as the molecule, how does the EC50 read?
Answer: 0.1 to 1 µM

Question: For `Cc1n[nH]c(C)c1-c1ccc(NC(=O)[C@@H](NC(=O)OC2CC2)C(c2ccccc2)c2ccccc2)cc1` [Example 426, cyclopropyl N-[(1S)-1-benzhydryl-2-[4-(3,5-dimethyl-1H-pyrazol-4-yl)anilino]-2-oxo-ethyl]carbamate], which EC50 is on record?
Answer: 0.1 to 1 µM

Question: How did the EC50 turn out when `Cc1n[nH]c(C)c1-c1ccc(NC(=O)[C@@H](NC(=O)N2CCCC2CO)C2CCCCC2)cc1` (single isomer, unassigned) [Example 474] was run?
Answer: > 1 µM

Question: Which EC50 does the source give for `Cn1cnnc1-c1ccc(NC(=O)[C@@H](NC(=O)c2cnnn2-c2ccccc2)C2CCCCC2)cc1` [Example 348, N-[(1S)-1-cyclohexyl-2-[4-(4-methyl-1,2,4-triazol-3-yl)anilino]-2-oxo-ethyl]-3-phenyl-triazole-4-carboxamide] here?
Answer: > 1 µM

Question: How did the EC50 turn out when `Cc1ncn(C)c1-c1ccc(NC(=O)[C@@H](NC(=O)c2ccnn2C(C)C)C(C2CC2)C2CC2)cc1O` [Example 363, N-[(1S)-1-(dicyclopropylmethyl)-2-[4-(3,5-dimethylimidazol-4-yl)-3-hydroxy-anilino]-2-oxo-ethyl]-2-isopropyl-pyrazole-3-carboxamide] was run?
Answer: < 0.1 µM

Question: `CC(C)c1ncn(C)c1-c1ccc(NC(=O)[C@@H](NC(=O)c2ccnn2C(C)C)C(C2CC2)C2CC2)cc1` [Example 401, N-[(1S)-1-(dicyclopropylmethyl)-2-[4-(5-isopropyl-3-methyl-imidazol-4-yl)anilino]-2-oxo-ethyl]-2-isopropyl-pyrazole-3-carboxamide] was tested. Which EC50 did it give?
Answer: 0.1 to 1 µM
